Results: patent publication US20210196598A1, “Specific Co-Aggregation Inhibition by Arginine” (priority 2018, published 2021)

How the values were obtained:
oral biofilms (plaque) = experiment: Destabilization of oral biofilms (plaque); assay type: cell-based; conditions: biofilms treated with the amino acid
[1] = tested on: S. gordonii and V. atypica co-aggregate pair; experiment: Visual Coaggregation Score, S. gordonii + V. atypica; assay type: cell-based; conditions: post-treatment
Method: (§1) The following six pairs of co-aggregates were co-cultured and treated with either 86 mM arginine, 400 mM arginine, 86 mM lysine or 400 mM lysine:
2) Commensal oral bacterium S. gordonii and pathogenic oral bacterium V. atypica;
(§2) Bacterial aggregation was scored visually using a Visual Coaggregation Score (0-4) scoring system.

[2] = tested on: S. gordonii and A. oris co-aggregate pair; experiment: Visual Coaggregation Score, S. gordonii + A. oris; assay type: cell-based; conditions: for Visual Coaggregation Score (0-4): post-treatment
Method: as §1
1) Commensal oral bacteria S. gordonii and A. oris;
as §2

[3] = tested on: A. oris and P. gingivalis co-aggregate pair; experiment: Visual Coaggregation Score, A. oris + P. gingivalis; assay type: cell-based; conditions: post-treatment
Method: as §1
6) Commensal oral bacterium A. oris and pathogenic oral bacterium P. gingivalis.
as §2

[4] = tested on: S. gordonii and F. nucleatum co-aggregate pair; experiment: Visual Coaggregation Score, S. gordonii + F. nucleatum; assay type: cell-based; conditions: post-treatment
Method: as §1
3) Commensal oral bacterium S. gordonii and pathogenic oral bacterium F. nucleatum;
as §2

[5] = tested on: A. oris and F. nucleatum co-aggregate pair; experiment: Visual Coaggregation Score, A. oris + F. nucleatum; assay type: cell-based; conditions: post-treatment
Method: as §1
5) Commensal oral bacterium A. oris and pathogenic oral bacterium F. nucleatum; and
as §2

[6] = tested on: A. oris and V. atypica co-aggregate pair; experiment: Visual Coaggregation Score, A. oris + V. atypica; assay type: cell-based; conditions: post-treatment
Method: as §1
4) Commensal oral bacterium A. oris and pathogenic oral bacterium V. atypica;
as §2

[7] = tested on: commensal/pathogenic co-aggregate pairs; experiment: Visual coaggregation scoring, summary in words over the co-aggregate pairs of Table 1; assay type: cell-based
[8] = tested on: co-aggregates of A. naeslundii (commensal) and P. gingivalis (pathogenic); experiment: FlowCam coaggregation, commensal:pathogenic pair A. naeslundii and P. gingivalis; assay type: cell-based, Actinomyces naeslundii and Porphyromonas gingivalis
Method: (§3) Coaggregation was studied using FlowCam® technology (Fluid Imaging Technologies, ME, USA). S. gordonii DL1, A. oris MG1, P. gingivalis W83, and F. nucleatum ATCC 25586 were harvested from batch cultures and washed once in coaggregation buffer by centrifuging for 10 mins at 3,000 g. After centrifugation, the pellets were re-suspended in coaggregation buffer and adjusted to an optical density of 1.0 (±0.1) at 600 nm. The cell suspensions were then subject to a 5-fold dilution in coaggregation buffer. Each pair was then loaded onto the FlowCam™ device and allowed to sit for one minute. The pairs were subsequently pumped through the device until they reached the flow cell. Data collection was initiated once the Olympus UPlanFLN 10X/0.30 objective was focused on the flowing particles. The FlowCam™ was run for 45 seconds at a flow rate of 0.3 ml/min and images were acquired at 10 frames per second. Flash duration was set to 8 μSec and the particle sizes were measured using area based diameter (ABD) with a particle filter set to detect between 5 and 10000 μm. The same procedure was tested for each pair while suspended in coaggregation buffer supplemented with various concentrations of arginine or lysine.
(§4) The following three pairs of co-aggregates were co-cultured and treated with either buffer (untreated; control) 86 mM arginine or 100 mM arginine:
2) Commensal oral bacterium A. naeslundii and pathogenic bacterium Porphyromonas gingivalis,
(§5) The reduction in aggregate sizes was greater in each pair of commensal/pathogenic bacteria, i.e. the co-aggregates of A. naeslundii (commensal) and P. gingivalis (pathogenic) and the co-aggregates of S. gordonii (commensal) and F. nucleatum (pathogenic) compared to the commensal/commensal co-aggregates of S. gordonii (commensal) and A. naeslundii (commensal).
(§6) In FIG. 2, the data from the treated co-aggregates was normalized against untreated co-aggregates. FIG. 2 reflects a selective action of arginine against specific co-aggregates. […]

[9] = tested on: co-aggregates of S. gordonii (commensal) and A. naeslundii (commensal); experiment: FlowCam coaggregation, commensal:commensal pair S. gordonii and A. naeslundii; assay type: cell-based, Streptococcus gordonii and Actinomyces naeslundii
Method: as §3, §4
1) Commensal oral bacteria Streptococcus gordonii and Actinomyces naeslundii,
as §5, §6

[10] = tested on: co-aggregates of S. gordonii (commensal) and F. nucleatum (pathogenic); experiment: FlowCam coaggregation, commensal:pathogenic pair S. gordonii and F. nucleatum; assay type: cell-based, Streptococcus gordonii and Fusobacterium nucleatum
Method: as §3, §4
3) Commensal oral bacterium S. gordonii and pathogenic bacterium Fusobacterium nucleatum.
as §5, §6

[11] = 86 mM and 100 mM arginine, FIG. 1
[12] = Actinomyces naeslundii, read-out: inhibition of co-aggregation, normalized against untreated co-aggregates
[13] = Streptococcus gordonii, read-out: inhibition of co-aggregation, normalized against untreated co-aggregates

NCCCC[C@H](N)C(=O)O [lysine, reference compound]
effect on oral biofilms / total biofilm biomass, in words (oral biofilms (plaque)): No similar disruptive effects
Visual Coaggregation Score (0-4) ([1]; 86 mM amino acid): 4
Visual Coaggregation Score (0-4) ([1]; 400 mM amino acid): 3
Visual Coaggregation Score (0-4) ([2]; 86 mM amino acid): 4
Visual Coaggregation Score (0-4) ([2]; 400 mM amino acid): 4
Visual Coaggregation Score (0-4) ([3]; 86 mM amino acid): 1-2
Visual Coaggregation Score (0-4) ([3]; 400 mM amino acid): 0-1
Visual Coaggregation Score (0-4) ([4]; 86 mM amino acid): 3-4
Visual Coaggregation Score (0-4) ([4]; 400 mM amino acid): 3
Visual Coaggregation Score (0-4) ([5]; 86 mM amino acid): 3-4
Visual Coaggregation Score (0-4) ([5]; 400 mM amino acid): 2-3
Visual Coaggregation Score (0-4) ([6]; 86 mM amino acid): 3
Visual Coaggregation Score (0-4) ([6]; 400 mM amino acid): 0-1
anti-coadhesion functionality, in words ([7]; lysine in any of the corresponding pairs): Little to no anti-coadhesion functionality

N=C(N)NCCC[C@H](N)C(=O)O [arginine]
effect on oral biofilms / total biofilm biomass, in words (oral biofilms (plaque)): reductions in total biofilm biomass
Visual Coaggregation Score (0-4) ([1]; 86 mM amino acid): 2-3
Visual Coaggregation Score (0-4) ([1]; 400 mM amino acid): 2
Visual Coaggregation Score (0-4) ([2]; 86 mM amino acid): 4
inhibitory effect on aggregation, in words ([2]; 86 mM and 100 mM arginine (so in the source), commensal/commensal pair): none to little inhibitory effect
Visual Coaggregation Score (0-4) ([2]; 400 mM amino acid): 3-4
Visual Coaggregation Score (0-4) ([3]; 86 mM amino acid): 0-1
Visual Coaggregation Score (0-4) ([3]; 400 mM amino acid): 0
Visual Coaggregation Score (0-4) ([4]; 86 mM amino acid): 0-1
Visual Coaggregation Score (0-4) ([4]; 400 mM amino acid): 0-1
Visual Coaggregation Score (0-4) ([5]; 86 mM amino acid): 0-1
Visual Coaggregation Score (0-4) ([5]; 400 mM amino acid): 0
bacterial aggregate sizes (area based diameter), in words [8, 11]: dose dependent reduction
inhibition at 86000 µM [8, 12]: 22%
inhibition at 100000 µM [8, 12]: 64%
bacterial aggregate sizes (area based diameter), in words [9, 11]: dose dependent reduction
inhibition at 86000 µM [9, 13]: 11%
inhibition at 100000 µM [9, 13]: 14%
Visual Coaggregation Score (0-4) ([6]; 86 mM amino acid): 0-1
Visual Coaggregation Score (0-4) ([6]; 400 mM amino acid): 0
inhibition of aggregation, in words ([7]; 86 mM and 100 mM arginine (so in the source), each of the five commensal/pathogenic pairs): selectively inhibited aggregation
bacterial aggregate sizes (area based diameter), in words [10, 11]: dose dependent reduction
inhibition at 86000 µM [10, 13]: 25%
inhibition at 100000 µM [10, 13]: 37%
